Tests used:
S. aureus Newman = experiment: Bliss interaction score (quartile over a dose matrix) (fitness difference); higher = more antagonism (negative = synergy)
How it was run: (§1)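 The Bliss score is observed fitness minus expected fitness, where the expected value is the product of single-drug fitness values inferred from combination data. Fitness is OD595 at entry into stationary phase normalised to the plate's robust no-drug mean and capped at 1. Scores are reported as quartiles spanning technical, biological and donor/recipient replicates.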

B. subtilis 168 [1] = experiment: as above
How it was run: as §1

S. pneumoniae D39V [2] = experiment: as above
How it was run: as §1

S. aureus DSM 20231 = experiment: as above
How it was run: as §1

S. pneumoniae D39V [3] = experiment: fitness (endpoint OD595 vs no drug) (fraction); higher = more growth
How it was run: (§2)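 With the first reading as background, OD595 was measured every 30 min for 14 h in 384-well plates kept at 37 °C and inoculated at OD595 0.01. TSB, LB Lennox or CY was the medium. Fitness is the optical density at the transition into stationary phase divided by the robust mean of no-drug control wells, with a cap of 1.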

B. subtilis 168 [4] = experiment: as above
How it was run: as §2
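Throughout, for Bliss interaction score (quartile over a dose matrix): first quartile when negative (synergy) and third quartile when positive (antagonism).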
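Throughout, for fitness (endpoint OD595 vs no drug): OD595 on entry to stationary phase over no-drug wells; at most 1.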

CC[C@H]1OC(=O)[C@H](C)[C@@H](O[C@H]2C[C@@](C)(OC)[C@@H](O)[C@H](C)O2)[C@H](C)[C@@H](O[C@@H]2O[C@H](C)C[C@H](N(C)C)[C@H]2O)[C@](C)(OC)C[C@@H](C)C(=O)[C@H](C)[C@@H](O)[C@]1(C)O [Clarithromycin] + O=C(O[C@@H]1Cc2c(O)cc(O)cc2O[C@@H]1c1cc(O)c(O)c(O)c1)c1cc(O)c(O)c(O)c1 [EGCG]
Conditions | Bliss interaction score
B. subtilis 168 [1] | 0.0404
S. aureus DSM 20231 | 0.109
S. aureus Newman | 0.132
S. pneumoniae D39V [2] | -0.0473

fitness, S. pneumoniae D39V [3], one replicate
Conditions | first compound 0.007812 µg/mL | first compound 0.01562 µg/mL | first compound 0.03125 µg/mL
partner 12.5 µg/mL | 0.808 | 0.8 | 0.635
partner 25 µg/mL | 0.847 | 0.762 | 0.609
partner 50 µg/mL | 0.827 | 0.77 | 0.614

fitness, S. pneumoniae D39V [3]
Conditions | first compound 0.0625 µg/mL | first compound 0.07 µg/mL | first compound 0.125 µg/mL | first compound 0.14 µg/mL | first compound 0.25 µg/mL | first compound 0.28 µg/mL
partner 12.5 µg/mL | 0.457 | 0.123 | 0.241 | 0.0422 | 0.0839 | 0.0515
partner 25 µg/mL | 0.493 | 0.115 | 0.25 | 0.0716 | 0.0874 | 0.0518
partner 50 µg/mL | 0.383 | 0.144 | 0.373 | 0.0769 | 0.122 | 0.0507

CC[C@H]1OC(=O)[C@H](C)[C@@H](O[C@H]2C[C@@](C)(OC)[C@@H](O)[C@H](C)O2)[C@H](C)[C@@H](O[C@@H]2O[C@H](C)C[C@H](N(C)C)[C@H]2O)[C@](C)(OC)C[C@@H](C)C(=O)[C@H](C)[C@@H](O)[C@]1(C)O [Clarithromycin] + Cc1cc(NS(=O)(=O)c2ccc(N)cc2)no1 [Sulfamethoxazol]
Conditions | Bliss interaction score
B. subtilis 168 [1] | 0.0784
S. aureus DSM 20231 | 0.0612
S. aureus Newman | -0.0372
S. pneumoniae D39V [2] | 0.0413

fitness, S. pneumoniae D39V [3], one replicate
Conditions | first compound 0.007812 µg/mL | first compound 0.01562 µg/mL | first compound 0.03125 µg/mL | first compound 0.0625 µg/mL | first compound 0.125 µg/mL | first compound 0.25 µg/mL
partner 1 µg/mL | 0.925 | 0.809 | 0.67 | 0.699 | 0.466 | 0.168
partner 2 µg/mL | 0.917 | 0.825 | 0.665 | 0.813 | 0.664 | 0.315
partner 4 µg/mL | 0.899 | 0.805 | 0.661 | 0.613 | 0.465 | 0.17

fitness, S. pneumoniae D39V [3]
Conditions | first compound 0.07 µg/mL | first compound 0.14 µg/mL | first compound 0.28 µg/mL
partner 1 µg/mL | 0.119 | 0.0685 | 0.0468
partner 2 µg/mL | 0.11 | 0.0677 | 0.0381
partner 4 µg/mL | 0.1 | 0.0655 | 0.0459

O=C(O[C@@H]1Cc2c(O)cc(O)cc2O[C@@H]1c1cc(O)c(O)c(O)c1)c1cc(O)c(O)c(O)c1 [EGCG] + Clc1ccc(COC(Cn2ccnc2)c2ccc(Cl)cc2Cl)c(Cl)c1 [Miconazole]
Conditions | Bliss interaction score
B. subtilis 168 [1] | -0.0649
S. aureus DSM 20231 | 0.278
S. aureus Newman | 0.167
S. pneumoniae D39V [2] | 0.0773

fitness, S. pneumoniae D39V [3]
Conditions | partner 1.073 µg/mL | partner 1.25 µg/mL | partner 2.145 µg/mL | partner 2.5 µg/mL | partner 4.29 µg/mL | partner 5 µg/mL
first compound 12.5 µg/mL | 0.956 | 0.913 | ≥ 1 | 0.805 | 0.824 | 0.858
first compound 25 µg/mL | 0.983 | ≥ 1 | ≥ 1 | 0.923 | 0.834 | 0.89
first compound 50 µg/mL | 0.987 | 0.952 | 0.984 | 0.86 | 0.98 | 0.933

CCC[C@@H]1C[C@@H](C(=O)N[C@@H]([C@H]2O[C@H](SC)[C@H](O)[C@@H](O)[C@H]2O)[C@@H](C)O)N(C)C1 [Lincomycin] + CO[C@@H]1[C@@H](OC(N)=O)[C@@H](O)[C@H](Oc2ccc3c(O)c(NC(=O)c4ccc(O)c(CC=C(C)C)c4)c(=O)oc3c2C)OC1(C)C [Novobiocin]
Conditions | Bliss interaction score
B. subtilis 168 [1] | -0.0587
S. aureus DSM 20231 | 0.104
S. aureus Newman | 0.191
S. pneumoniae D39V [2] | -0.0884

fitness, B. subtilis 168 [4]
Conditions | first compound 0.1 µg/mL | first compound 0.2 µg/mL | first compound 0.4 µg/mL
partner 0.0125 µg/mL | 0.889 | 0.971 | 0.899
partner 0.025 µg/mL | 0.879 | 0.894 | 0.845
partner 0.05 µg/mL | 0.905 | 0.932 | 0.902

fitness, B. subtilis 168 [4], one replicate
Conditions | first compound 0.1 µg/mL | first compound 0.2 µg/mL | first compound 0.4 µg/mL | first compound 0.8 µg/mL | first compound 1.6 µg/mL
partner 0.1 µg/mL | ≥ 1 | 0.995 | 0.976 | – | –
partner 0.125 µg/mL | – | – | 0.836 | 0.883 | 0.88
partner 0.2 µg/mL | 0.991 | 0.956 | ≥ 1 | – | –
partner 0.25 µg/mL | – | – | 0.809 | 0.848 | 0.819
partner 0.5 µg/mL | – | – | 0.569 | 0.563 | 0.594
